From ChEMBL document CHEMBL1201862, “PubChem BioAssay data set” (2004)
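Exposure lasted 48 hours, with cells grown in 96-well plates and compounds tested at five concentrations. At the GI50, growth is halved.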 The source made the active and inactive calls. Cut-off read from the data, not from the text of the source: active = GI50 up to about 1.1 µM and inactive = higher.

What was measured:
Experiment in all cases: NCI anticancer screen, dose series, 48 h
NCI-H226 = test system: NCI-H226
PC-3 = test system: PC-3
SF-539 = test system: SF-539
MDA-N = test system: MDA-N
SR = test system: SR
CAKI-1 = test system: CAKI-1
SK-MEL-5 = test system: SK-MEL-5
RPMI-8226 = test system: RPMI-8226
SW-620 = test system: SW-620
Hs-578T = test system: Hs-578T
UO-31 = test system: UO-31
SF-295 = test system: SF-295
OVCAR-3 = test system: OVCAR-3
SK-MEL-2 = test system: SK-MEL-2
OVCAR-5 = test system: OVCAR-5
NCI-H522 = test system: NCI-H522
NCI-H23 = test system: NCI-H23
TK-10 = test system: TK-10
COLO 205 = test system: COLO 205
UACC-257 = test system: UACC-257
DU-145 = test system: DU-145
MDA-MB-231 = test system: MDA-MB-231
HOP-92 = test system: HOP-92
A498 = test system: A498
SNB-19 = test system: SNB-19
OVCAR-4 = test system: OVCAR-4
HT-29 = test system: HT-29
NCI/ADR-RES = test system: NCI/ADR-RES
M14 = test system: M14
NCI-H460 = test system: NCI-H460
HOP-62 = test system: HOP-62
T47D = test system: T47D
SNB-75 = test system: SNB-75
A549 = test system: A549
ACHN = test system: ACHN
786-0 = test system: 786-0
KM12 = test system: KM12
HCT-15 = test system: HCT-15
MOLT-4 = test system: MOLT-4
HCT-116 = test system: HCT-116
OVCAR-8 = test system: OVCAR-8
U-251 = test system: U-251
UACC-62 = test system: UACC-62
SF-268 = test system: SF-268
HL-60 = test system: HL-60
IGROV-1 = test system: IGROV-1
HCC 2998 = test system: HCC 2998
SK-OV-3 = test system: SK-OV-3
MDA-MB-435 = test system: MDA-MB-435
RXF 393 = test system: RXF 393
SN12C = test system: SN12C
LOX IMVI = test system: LOX IMVI
CCRF-CEM = test system: CCRF-CEM
SK-MEL-28 = test system: SK-MEL-28
K562 = test system: K562
EKVX = test system: EKVX
Malme-3M = test system: Malme-3M
MCF7 = test system: MCF7

Measured: GI50

CC(CO)C1=CC(C#CCOCc2ccccc2)N(C(=O)Oc2ccccc2)c2ccccc21 (configuration not stated)
inactive: NCI-H226 40.7 µM | PC-3 14.4 µM | SF-539 41 µM | MDA-N 21.3 µM | SR 9.53 µM | CAKI-1 18.7 µM | SK-MEL-5 21.4 µM | RPMI-8226 13.1 µM | SW-620 45.5 µM | Hs-578T 14.3 µM | UO-31 26.4 µM | SF-295 7.24 µM | OVCAR-3 9.35 µM | SK-MEL-2 23.3 µM | OVCAR-5 64.1 µM | NCI-H522 7.73 µM | NCI-H23 8.89 µM | TK-10 48.1 µM | COLO 205 15.1 µM | UACC-257 13.2 µM | DU-145 57.5 µM | MDA-MB-231 39.6 µM | HOP-92 7.69 µM | A498 4.59 µM | SNB-19 32.5 µM | OVCAR-4 3.48 µM | HT-29 18.6 µM | NCI/ADR-RES 8.89 µM | M14 17.1 µM | NCI-H460 18 µM | HOP-62 29.3 µM | T47D 3.76 µM | SNB-75 22.9 µM | A549 9.98 µM | ACHN 6.9 µM | 786-0 28 µM | KM12 14.9 µM | MOLT-4 4.63 µM | HCT-116 14.8 µM | OVCAR-8 30.5 µM | U-251 34.5 µM | UACC-62 2.81 µM | SF-268 24.9 µM | HL-60 26.3 µM | IGROV-1 28.2 µM | HCC 2998 25.5 µM | SK-OV-3 34.9 µM | MDA-MB-435 15.5 µM | RXF 393 3.33 µM | SN12C 15.9 µM | LOX IMVI 33.5 µM | CCRF-CEM 15 µM | SK-MEL-28 54.5 µM | K562 8.26 µM | EKVX 10.3 µM
5.04 µM: HCT-15

Cc1c(C(=O)O)sc2nc[nH]c(=O)c12
> 100 µM: HCT-15
inactive: NCI-H226 25.1 µM | PC-3 > 100 µM | SF-539 > 100 µM | CAKI-1 50.2 µM | SK-MEL-5 > 100 µM | RPMI-8226 > 100 µM | SW-620 > 100 µM | Hs-578T 22.6 µM | UO-31 > 100 µM | SF-295 > 100 µM | OVCAR-3 > 100 µM | SK-MEL-2 > 100 µM | Malme-3M > 100 µM | OVCAR-5 > 100 µM | NCI-H522 > 100 µM | NCI-H23 > 100 µM | TK-10 > 100 µM | COLO 205 > 100 µM | UACC-257 > 100 µM | DU-145 > 100 µM | MDA-MB-231 > 100 µM | HOP-92 67.1 µM | SNB-19 > 100 µM | OVCAR-4 > 100 µM | HT-29 > 100 µM | NCI/ADR-RES > 100 µM | M14 > 100 µM | NCI-H460 > 100 µM | HOP-62 > 100 µM | T47D > 100 µM | SNB-75 49.8 µM | A549 > 100 µM | ACHN > 100 µM | 786-0 > 100 µM | KM12 > 100 µM | MOLT-4 > 100 µM | HCT-116 > 100 µM | OVCAR-8 > 100 µM | U-251 > 100 µM | UACC-62 > 100 µM | SF-268 > 100 µM | MCF7 > 100 µM | HL-60 > 100 µM | IGROV-1 84.1 µM | HCC 2998 > 100 µM | SK-OV-3 > 100 µM | MDA-MB-435 > 100 µM | RXF 393 > 100 µM | SN12C > 100 µM | LOX IMVI > 100 µM | SK-MEL-28 > 100 µM | K562 > 100 µM | EKVX 53.8 µM

N#C/C(C(=S)Nc1ccccc1)=C(/N)N1CCCC1
> 100 µM: HCT-15
inactive: NCI-H226 > 100 µM | PC-3 > 100 µM | SF-539 > 100 µM | MDA-N > 100 µM | SR > 100 µM | CAKI-1 27.9 µM | SK-MEL-5 > 100 µM | RPMI-8226 > 100 µM | SW-620 > 100 µM | Hs-578T > 100 µM | UO-31 46.7 µM | SF-295 > 100 µM | OVCAR-3 > 100 µM | SK-MEL-2 > 100 µM | Malme-3M > 100 µM | OVCAR-5 > 100 µM | NCI-H522 > 100 µM | NCI-H23 > 100 µM | TK-10 > 100 µM | COLO 205 > 100 µM | UACC-257 > 100 µM | DU-145 > 100 µM | MDA-MB-231 > 100 µM | HOP-92 62.5 µM | A498 > 100 µM | SNB-19 > 100 µM | OVCAR-4 > 100 µM | HT-29 > 100 µM | NCI/ADR-RES > 100 µM | M14 > 100 µM | NCI-H460 > 100 µM | HOP-62 > 100 µM | A549 > 100 µM | ACHN > 100 µM | 786-0 > 100 µM | KM12 > 100 µM | MOLT-4 > 100 µM | HCT-116 > 100 µM | OVCAR-8 > 100 µM | U-251 > 100 µM | UACC-62 > 100 µM | SF-268 > 100 µM | MCF7 > 100 µM | HL-60 > 100 µM | IGROV-1 > 100 µM | HCC 2998 > 100 µM | MDA-MB-435 > 100 µM | RXF 393 > 100 µM | SN12C > 100 µM | LOX IMVI > 100 µM | CCRF-CEM > 100 µM | SK-MEL-28 > 100 µM | K562 > 100 µM | EKVX > 100 µM

O=C1c2scc(-c3ccc(Cl)cc3)c2-n2cccc21
active: A498 1.11 µM
inactive: PC-3 > 100 µM | MDA-N 8.65 µM | SR 2.84 µM | SK-MEL-5 > 100 µM | RPMI-8226 > 100 µM | SW-620 > 100 µM | Hs-578T 1.95 µM | SF-295 > 100 µM | OVCAR-3 > 100 µM | SK-MEL-2 > 100 µM | Malme-3M > 100 µM | OVCAR-5 > 100 µM | NCI-H522 2.98 µM | COLO 205 > 100 µM | UACC-257 > 100 µM | DU-145 > 100 µM | MDA-MB-231 14 µM | M14 50.5 µM | NCI-H460 > 100 µM | T47D > 100 µM | SNB-75 2.4 µM | A549 > 100 µM | ACHN > 100 µM | KM12 5.25 µM | MOLT-4 73.3 µM | UACC-62 7.13 µM | IGROV-1 3.17 µM | HCC 2998 > 100 µM | SK-OV-3 > 100 µM | MDA-MB-435 8.04 µM | RXF 393 > 100 µM | LOX IMVI > 100 µM | CCRF-CEM > 100 µM | SK-MEL-28 > 100 µM | K562 3.93 µM | EKVX 2.47 µM
